Bounds are passed on as bounds.

In one assay the target is T1, human CB2 receptors (Homo sapiens, UniProt P34972).
T1 construct: expressed in transfected cells; host or cells: CHO cells
The assay can be described thus: functional cAMP assay, human CB2. Type of assay: cell-based. As to conditions: CHO cells expressing human CB2, cAMP; read-out: human CB2 EC50. The procedure:
(§1) CHO cells expressing human CB1 or CB2 receptors are seeded 17-24 hours prior to the experiment 50.000 cells per well in a black 96 well plate with flat clear bottom (Corning Costar #3904) in DMEM (Invitrogen No. 31331), 1×HT supplement, with 10% fetal calf serum and incubated at 5% CO2 and 37° C. in a humidified incubator. The growth medium was exchanged with Krebs Ringer Bicarbonate buffer with 1 mM IBMX and incubated at 30° C. for 30 min. Compounds were added to a final assay volume of 100 μl and incubated for 30 min at 30° C. Using the cAMP-Nano-TRF detection kit the assay (Roche Diagnostics) was stopped by the addition of 50 μl lysis reagent (Tris, NaCl, 1.5% Triton X100, 2.5% NP40, 10% NaN3) and 50 μl detection solutions (20 μM mAb Alexa700-cAMP 1:1, and 48 μM Ruthenium-2-AHA-cAMP) and shaken for 2 h at room temperature. The time-resolved energy transfer is measured by a TRF reader (Evotec Technologies GmbH), equipped with a ND:YAG laser as excitation source. The plate is measured twice with the excitation at 355 nm and at the emission with a delay of 100 ns and a gate of 100 ns, total exposure time 10 s at 730 (bandwidth 30 nm) or 645 nm (bandwidth 75 nm), respectively. The FRET signal is calculated as follows: FRET=T730-Alexa730-P(T645-B645) with P=Ru730-B730/Ru645-B645, where T730 is the test well measured at 730 nM, T645 is the test well measured at 645 nm, B730 and B645 are the buffer controls at 730 nm and 645 nm, respectively. cAMP content is determined from the function of a standard curve spanning from 10 μM to 0.13 nM cAMP.
(§2) EC50 values were determined using Activity Base analysis (ID Business Solution, Limited). The EC50 values for a wide range of cannabinoid agonists generated from this assay were in agreement with the values published in the scientific literature.
(Changes in cAMP serve as a functional read-out for many G protein-coupled receptors.)

In the next assay the target is T2, human CB1 receptors (Homo sapiens, UniProt P21554).
T2 construct: expressed in transfected cells; host or cells: CHO cells
The assay can be described thus: functional cAMP assay, human CB1. Type of assay: cell-based. As to conditions: CHO cells expressing human CB1, cAMP; read-out: human CB1 EC50. The method, then: as §1, §2

T2 sequence (P21554 whole entry): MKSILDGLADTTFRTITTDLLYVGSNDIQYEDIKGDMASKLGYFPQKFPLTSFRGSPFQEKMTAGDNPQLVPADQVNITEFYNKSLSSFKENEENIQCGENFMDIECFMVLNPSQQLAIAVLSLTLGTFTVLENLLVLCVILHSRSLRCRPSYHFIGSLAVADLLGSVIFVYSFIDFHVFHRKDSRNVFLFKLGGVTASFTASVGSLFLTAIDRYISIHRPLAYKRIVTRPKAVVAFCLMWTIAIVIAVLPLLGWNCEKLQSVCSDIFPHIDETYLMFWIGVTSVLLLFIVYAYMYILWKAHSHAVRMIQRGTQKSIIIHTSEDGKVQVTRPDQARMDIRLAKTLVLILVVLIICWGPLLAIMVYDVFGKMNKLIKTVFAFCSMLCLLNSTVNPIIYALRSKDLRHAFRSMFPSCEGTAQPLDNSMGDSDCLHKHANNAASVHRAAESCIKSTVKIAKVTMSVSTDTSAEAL
T1 sequence (P34972 whole entry): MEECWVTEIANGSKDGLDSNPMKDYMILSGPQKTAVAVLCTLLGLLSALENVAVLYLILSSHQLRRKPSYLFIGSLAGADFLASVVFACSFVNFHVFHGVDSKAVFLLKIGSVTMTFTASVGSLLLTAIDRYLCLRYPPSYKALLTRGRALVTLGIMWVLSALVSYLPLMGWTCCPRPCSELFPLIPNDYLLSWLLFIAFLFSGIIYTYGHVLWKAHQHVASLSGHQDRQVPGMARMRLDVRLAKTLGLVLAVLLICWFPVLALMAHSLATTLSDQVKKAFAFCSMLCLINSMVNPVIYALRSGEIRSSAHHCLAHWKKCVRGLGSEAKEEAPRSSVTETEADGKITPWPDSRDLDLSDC

In general, EC50 refers to the midpoint of the concentration-response curve. `CC(C)(C)c1nc(N2CCOCC2(C)C)c2nnn(Cc3ccccc3Cl)c2n1` [Example 24, 5-tert-Butyl-3-(2-chloro-benzyl)-7-(3,3-dimethyl-morpholin-4-yl)-3H-[1,2,3]triazolo[4,5-d]pyrimidine]: the results for the EC50 at human CB2 receptors and on human CB1 receptors were 3 nM and 476 nM, respectively.

Consider `C[C@@H]1CC[C@@H](C)N1c1nc(C(C)(C)C)nc2c1nnn2Cc1ccccc1Cl` [Example 25, 5-tert-Butyl-3-(2-chloro-benzyl)-7-((2R,5R)-2,5-dimethyl-pyrrolidin-1-yl)-3H-[1,2,3]triazolo[4,5-d]pyrimidine], for which the EC50 was 31 nM on human CB2 receptors and 919 nM at human CB1 receptors.

With `CC(C)(C)c1nc(N2CC[C@H](O)C2)c2nnn(Cc3ccccc3Cl)c2n1` [Example 26, (S)-1-[5-tert-Butyl-3-(2-chloro-benzyl)-3H-[1,2,3]triazolo[4,5-d]pyrimidin-7-yl]-pyrrolidin-3-ol], the EC50 stood at 1.1 nM on human CB2 receptors and 866 nM on human CB1 receptors.

Consider `CC(C)(C)c1nc(N2CC[C@@H](O)C2)c2nnn(Cc3ccccc3Cl)c2n1` [Example 27, (R)-1-[5-tert-Butyl-3-(2-chloro-benzyl)-3H-[1,2,3]triazolo[4,5-d]pyrimidin-7-yl]-pyrrolidin-3-ol], for which the results for the EC50 on human CB2 receptors and at human CB1 receptors were 5.1 nM and more than 10000 nM, respectively.

On to `COC1CCN(c2nc(C(C)(C)C)nc3c2nnn3Cc2ccccc2Cl)C1` (stereo not drawn) [Example 28, 5-tert-Butyl-3-(2-chloro-benzyl)-7-(3-methoxy-pyrrolidin-1-yl)-3H-[1,2,3]triazolo[4,5-d]pyrimidine], for which the EC50 at human CB2 receptors was 11.2 nM; at human CB1 receptors, more than 10000 nM.

With `CC(C)(C)c1nc(N2CCCC2(C)C)c2nnn(Cc3ccccc3Cl)c2n1` [Example 29, 5-tert-Butyl-3-(2-chloro-benzyl)-7-(2,2-dimethyl-pyrrolidin-1-yl)-3H-[1,2,3]triazolo[4,5-d]pyrimidine], the EC50 at human CB2 receptors was 12.5 nM; on human CB1 receptors, 1630 nM.

For the compound `CC1CCCN1c1nc(C(C)(C)C)nc2c1nnn2Cc1ccccc1Cl` (stereo not drawn) [Example 30, 5-tert-Butyl-3-(2-chloro-benzyl)-7-(2-methyl-pyrrolidin-1-yl)-3H-[1,2,3]triazolo[4,5-d]pyrimidine], the results for the EC50 at human CB2 receptors and on human CB1 receptors were 26.9 nM and more than 10000 nM, respectively.

As to `CC(C)(C)c1nc(N2CCC3(COC3)C2)c2nnn(Cc3ccccc3Cl)c2n1` [Example 31, 5-tert-Butyl-3-(2-chloro-benzyl)-7-(2-oxa-6-aza-spiro[3.4]oct-6-yl)-3H-[1,2,3]triazolo[4,5-d]pyrimidine], the EC50 at human CB2 receptors is 9.8 nM; at human CB1 receptors it was 1260 nM.

As for `CC(C)(C)c1nc(N2CCC(O)CC2)c2nnn(Cc3ccccc3Cl)c2n1` [Example 32, 1-[5-tert-Butyl-3-(2-chloro-benzyl)-3H-[1,2,3]triazolo[4,5-d]pyrimidin-7-yl]-piperidin-4-ol], the EC50 was 20.7 nM at human CB2 receptors and more than 10000 nM on human CB1 receptors.

Take `CC(C)(C)c1nc(N2CCC[C@H](O)C2)c2nnn(Cc3ccccc3Cl)c2n1` [Example 33, (S)-1-[5-tert-Butyl-3-(2-chloro-benzyl)-3H-[1,2,3]triazolo[4,5-d]pyrimidin-7-yl]-piperidin-3-ol]: the results for the EC50 on human CB2 receptors and at human CB1 receptors were 2.5 nM and 764 nM, respectively.

With `CC(C)(C)c1nc(N2CCC[C@@H](O)C2)c2nnn(Cc3ccccc3Cl)c2n1` [Example 34, (R)-1-[5-tert-Butyl-3-(2-chloro-benzyl)-3H-[1,2,3]triazolo[4,5-d]pyrimidin-7-yl]-piperidin-3-ol], the EC50 on human CB2 receptors was determined as 27.5 nM; on human CB1 receptors it was 2270 nM.

For the compound `CC(C)(C)c1nc(N2CCC23COC3)c2nnn(Cc3ccccc3Cl)c2n1` [Example 35, 5-tert-Butyl-3-(2-chloro-benzyl)-7-(6-oxa-1-aza-spiro[3.3]hept-1-yl)-3H-[1,2,3]triazolo[4,5-d]pyrimidine], the figures for the 50% effective concentration (EC50) on human CB2 receptors and at human CB1 receptors were 3.6 nM and more than 10000 nM, respectively.
